The target in this experiment is T1, human carboxylesterase 1 (hCE1) (Homo sapiens, UniProt P23141).
T1 sequence (P23141 18-567): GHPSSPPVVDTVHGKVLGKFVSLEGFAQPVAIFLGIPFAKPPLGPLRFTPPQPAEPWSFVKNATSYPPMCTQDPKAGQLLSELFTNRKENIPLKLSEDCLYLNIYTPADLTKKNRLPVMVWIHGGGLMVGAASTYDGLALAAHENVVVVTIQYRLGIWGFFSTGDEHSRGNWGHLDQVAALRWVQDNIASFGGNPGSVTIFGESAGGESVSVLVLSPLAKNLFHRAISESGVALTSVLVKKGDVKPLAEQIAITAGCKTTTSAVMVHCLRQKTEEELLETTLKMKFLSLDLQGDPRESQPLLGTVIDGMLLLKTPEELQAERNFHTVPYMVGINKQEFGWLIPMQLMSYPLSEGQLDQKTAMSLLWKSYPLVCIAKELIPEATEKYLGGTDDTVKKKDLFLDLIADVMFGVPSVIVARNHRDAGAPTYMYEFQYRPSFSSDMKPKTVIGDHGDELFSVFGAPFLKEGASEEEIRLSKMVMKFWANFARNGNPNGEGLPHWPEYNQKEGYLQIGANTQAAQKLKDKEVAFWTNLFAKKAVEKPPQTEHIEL
Description: hCE1 inhibition, p-nitrophenyl acetate hydrolysis. The format is biochemical.

As usually defined, the IC50 is the point on the concentration scale where inhibition reaches its midpoint. A low value points to higher potency.

Each structure is given as a SMILES string.

Compound `CCCCCCCCCCC(C)=O` [Compound 9, 2-dodecanone, reference compound] displayed an IC50 greater than 1000 µM.

Turning to `CCCCCCCCOCC(=O)C(F)(F)F` [Compound 4, 1,1,1-trifluoro-3-octyloxypropan-2-one], the IC50 amounted to 0.02 µM.

For the origin of these results see publication PMC3014912 (Journal of molecular modeling, 2010).
